According to the NIST ThermoML archive (doi:10.1016/j.jct.2019.04.009):

Test: mn = molality of the nth substance listed, in mol/kg
Settings: Liquid, Vibrating tube method

NC(N)=O [urea] + O
298.15 K, 100 kPa
Settings	mass density [kg/m3]
m1 = 0.1001	998.63
m1 = 0.1999	1000.2
m1 = 0.3	1001.75
m1 = 0.4	1003.29
m1 = 0.5001	1004.81

NC(N)=O [urea] + OCCO
mass density [kg/m3], 99.6 kPa
Settings	288.15 K	298.15 K	308.15 K	318.15 K	328.15 K
m1 = 0.0551	1117.63	1110.69	1103.68	1096.6	1089.43
m1 = 0.1487	1118.67	1111.72	1104.7	1097.61	1090.44
m1 = 0.3264	1120.61	1113.63	1106.59	1099.51	1092.34
m1 = 0.446	1121.88	1114.89	1107.84	1100.77	1093.59
m1 = 0.495	1122.39	1115.41	1108.35	1101.28	1094.1
m1 = 0.6616	1124.11	1117.13	1110.06	1103	1095.82
m1 = 0.8791	1126.28	1119.33	1112.26	1105.19	1098.01
m1 = 1.072	1128.14	1121.24	1114.15	1107.09	1099.92
m1 = 1.208	1129.41	1122.55	1115.46	1108.4	1101.23
m1 = 1.357	1130.76	1123.96	1116.88	1109.83	1102.66
m1 = 1.523	1132.23	1125.51	1118.42	1111.4	1104.22
